Data reported in publication PMC11352961, “Peptide dendrimers transfecting CRISPR/Cas9 plasmid DNA: optimization and mechanism” (RSC Chemical Biology, 2024).
Bridge positions count the residues as written; N and C are the ends. Square brackets hold non-standard residues; d marks the D form. Side chains are listed from the residue outwards. Peptide text beside a SMILES is read from it. I, II: the chains in the order shown. * marks the point of attachment. Stearoyl = CCCCCCCCCCCCCCCCCC(=O)*; Palmitoyl = CCCCCCCCCCCCCCCC(=O)*

Tests used:
HeLa cells = assay: Cell viability by PrestoBlue assay after transfection, HeLa cells; assay type: cell-based; conditions: 4 h
HEK293 cells = assay: Cell viability by PrestoBlue assay after transfection, HEK cells; assay type: cell-based; conditions: 4 h

With `CCCCCCCCCCCCCCCCCC(=O)NCCCC[C@@H](NC(=O)[C@@H](CCCCNC(=O)[C@@H](CC(C)C)NC(=O)[C@@H](CCCCN)NC(=O)[C@@H](CCCCNC(=O)[C@@H](CC(C)C)NC(=O)[C@@H](CCCCN)NC(=O)[C@@H](CCCCNC(=O)[C@@H](CC(C)C)NC(=O)[C@H](N)CCCCN)NC(=O)[C@@H](CC(C)C)NC(=O)[C@H](N)CCCCN)NC(=O)[C@@H](CC(C)C)NC(=O)[C@@H](CCCCN)NC(=O)[C@@H](CCCCNC(=O)[C@@H](CC(C)C)NC(=O)[C@H](N)CCCCN)NC(=O)[C@@H](CC(C)C)NC(=O)[C@H](N)CCCCN)NC(=O)[C@@H](CC(C)C)NC(=O)[C@@H](CCCCN)NC(=O)[C@@H](CCCCNC(=O)[C@@H](CC(C)C)NC(=O)[C@@H](CCCCN)NC(=O)[C@@H](CCCCNC(=O)[C@@H](CC(C)C)NC(=O)[C@H](N)CCCCN)NC(=O)[C@@H](CC(C)C)NC(=O)[C@H](N)CCCCN)NC(=O)[C@@H](CC(C)C)NC(=O)[C@@H](CCCCN)NC(=O)[C@@H](CCCCNC(=O)[C@@H](CC(C)C)NC(=O)[C@H](N)CCCCN)NC(=O)[C@@H](CC(C)C)NC(=O)[C@H](N)CCCCN)C(=O)N[C@H](C)C(N)=O` [Z30] (I: H-[dK][dL][dK]([dL-dK])[dK][dL][dK][dK][dL][dK][dK](Stearoyl)[dA]-NH2 / II: H-[dK][dL][dK]([dL-dK])[dK][dL][dK][dK][dL] / III: H-[dK][dL][dK]([dL-dK])[dK][dL] / IV: H-[dK][dL][dK]([dL-dK])[dK][dL]; amide I:6-IV:C, I:9-II:C, II:6-III:C) the “% viability HeLa cells” value (HeLa cells) was 91 ± 8% and the “% viability HEK cells” value (HEK293 cells) was 75 ± 1%.

For `CCCCCCCCCCCCCCCCCC(=O)NCCCC[C@@H](NC(=O)[C@@H](CCCCNC(=O)[C@@H](CC(C)C)NC(=O)[C@@H](CC(C)C)NC(=O)[C@@H](CCCCNC(=O)[C@@H](CC(C)C)NC(=O)[C@@H](CCCCN)NC(=O)[C@@H](CCCCNC(=O)[C@@H](CC(C)C)NC(=O)[C@H](N)CCCCN)NC(=O)[C@@H](CC(C)C)NC(=O)[C@H](N)CCCCN)NC(=O)[C@@H](CC(C)C)NC(=O)[C@@H](CCCCN)NC(=O)[C@@H](CCCCNC(=O)[C@@H](CC(C)C)NC(=O)[C@H](N)CCCCN)NC(=O)[C@@H](CC(C)C)NC(=O)[C@H](N)CCCCN)NC(=O)[C@@H](CC(C)C)NC(=O)[C@@H](CC(C)C)NC(=O)[C@@H](CCCCNC(=O)[C@@H](CC(C)C)NC(=O)[C@@H](CCCCN)NC(=O)[C@@H](CCCCNC(=O)[C@@H](CC(C)C)NC(=O)[C@H](N)CCCCN)NC(=O)[C@@H](CC(C)C)NC(=O)[C@H](N)CCCCN)NC(=O)[C@@H](CC(C)C)NC(=O)[C@@H](CCCCN)NC(=O)[C@@H](CCCCNC(=O)[C@@H](CC(C)C)NC(=O)[C@H](N)CCCCN)NC(=O)[C@@H](CC(C)C)NC(=O)[C@H](N)CCCCN)C(N)=O` [Z31] (I: H-[dK][dL][dK]([dL-dK])[dK][dL][dK][dL][dL][dK][dK](Stearoyl)-NH2 / II: H-[dK][dL][dK]([dL-dK])[dK][dL][dK][dL][dL] / III: H-[dK][dL][dK]([dL-dK])[dK][dL] / IV: H-[dK][dL][dK]([dL-dK])[dK][dL]; amide I:6-IV:C, I:9-II:C, II:6-III:C), the “% viability HeLa cells” value (HeLa cells) was 91 ± 6% and the “% viability HEK cells” value (HEK293 cells) was 96 ± 2%.

In the case of `CCCCCCCCCCCCCCCCCC(=O)NCCCC[C@@H](NC(=O)[C@@H](CCCCNC(=O)[C@@H](CC(C)C)NC(=O)[C@@H](CC(C)C)NC(=O)[C@@H](CCCCNC(=O)[C@@H](CC(C)C)NC(=O)[C@@H](CC(C)C)NC(=O)[C@@H](CCCCNC(=O)[C@@H](CC(C)C)NC(=O)[C@H](N)CCCCN)NC(=O)[C@@H](CC(C)C)NC(=O)[C@H](N)CCCCN)NC(=O)[C@@H](CC(C)C)NC(=O)[C@@H](CC(C)C)NC(=O)[C@@H](CCCCNC(=O)[C@@H](CC(C)C)NC(=O)[C@H](N)CCCCN)NC(=O)[C@@H](CC(C)C)NC(=O)[C@H](N)CCCCN)NC(=O)[C@@H](CC(C)C)NC(=O)[C@@H](CC(C)C)NC(=O)[C@@H](CCCCNC(=O)[C@@H](CC(C)C)NC(=O)[C@@H](CC(C)C)NC(=O)[C@@H](CCCCNC(=O)[C@@H](CC(C)C)NC(=O)[C@H](N)CCCCN)NC(=O)[C@@H](CC(C)C)NC(=O)[C@H](N)CCCCN)NC(=O)[C@@H](CC(C)C)NC(=O)[C@@H](CC(C)C)NC(=O)[C@@H](CCCCNC(=O)[C@@H](CC(C)C)NC(=O)[C@H](N)CCCCN)NC(=O)[C@@H](CC(C)C)NC(=O)[C@H](N)CCCCN)C(N)=O` [Z32] (I: H-[dK][dL][dK]([dL-dK])[dL][dL][dK][dL][dL][dK][dK](Stearoyl)-NH2 / II: H-[dK][dL][dK]([dL-dK])[dL][dL][dK][dL][dL] / III: H-[dK][dL][dK]([dL-dK])[dL][dL] / IV: H-[dK][dL][dK]([dL-dK])[dL][dL]; amide I:6-IV:C, I:9-II:C, II:6-III:C), the “% viability HeLa cells” value (HeLa cells) is reported as 97 ± 4% and the “% viability HEK cells” value (HEK293 cells) is reported as 111 ± 1%.

For `CCCCCCCCCCCCCCCC(=O)NCCCC[C@@H](NC(=O)[C@@H](CCCCNC(=O)[C@@H](CC(C)C)NC(=O)[C@@H](CCCNC(=N)N)NC(=O)[C@@H](CCCCNC(=O)[C@@H](CC(C)C)NC(=O)[C@@H](CCCNC(=N)N)NC(=O)[C@@H](CCCCNC(=O)[C@@H](CC(C)C)NC(=O)[C@H](N)CCCNC(=N)N)NC(=O)[C@@H](CC(C)C)NC(=O)[C@H](N)CCCNC(=N)N)NC(=O)[C@@H](CC(C)C)NC(=O)[C@@H](CCCNC(=N)N)NC(=O)[C@@H](CCCCNC(=O)[C@@H](CC(C)C)NC(=O)[C@H](N)CCCNC(=N)N)NC(=O)[C@@H](CC(C)C)NC(=O)[C@H](N)CCCNC(=N)N)NC(=O)[C@@H](CC(C)C)NC(=O)[C@@H](CCCNC(=N)N)NC(=O)[C@@H](CCCCNC(=O)[C@@H](CC(C)C)NC(=O)[C@@H](CCCNC(=N)N)NC(=O)[C@@H](CCCCNC(=O)[C@@H](CC(C)C)NC(=O)[C@H](N)CCCNC(=N)N)NC(=O)[C@@H](CC(C)C)NC(=O)[C@H](N)CCCNC(=N)N)NC(=O)[C@@H](CC(C)C)NC(=O)[C@@H](CCCNC(=N)N)NC(=O)[C@@H](CCCCNC(=O)[C@@H](CC(C)C)NC(=O)[C@H](N)CCCNC(=N)N)NC(=O)[C@@H](CC(C)C)NC(=O)[C@H](N)CCCNC(=N)N)C(N)=O` [Z33] (I: H-[dR][dL][dK]([dL-dR])[dR][dL][dK][dR][dL][dK][dK](Palmitoyl)-NH2 / II: H-[dR][dL][dK]([dL-dR])[dR][dL][dK][dR][dL] / III: H-[dR][dL][dK]([dL-dR])[dR][dL] / IV: H-[dR][dL][dK]([dL-dR])[dR][dL]; amide I:6-IV:C, I:9-II:C, II:6-III:C), the “% viability HeLa cells” value (HeLa cells) was 93 ± 6% and the “% viability HEK cells” value (HEK293 cells) was 84 ± 1%.
